Test results published in PubChem BioAssay (NCI).
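Values below derive from 48-hour exposures of cells grown in 96-well plates, with endpoints linearly interpolated between the two concentrations bracketing the appropriate inhibition level. The concentration for 50% growth inhibition is given as GI50. TGI: total growth inhibition.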

tested on: U251 CNS; experiment: growth of human tumour cells (NCI), 48 h

SMILES | GI50 [µM] | TGI [µM]
CSc1ccccc1C#C/C=C\C#Cc1ccccc1N1CCCC1=O | > 11 | > 50
NC1CCC(Nc2nc(NCc3ccc(-c4ccco4)nc3)c3ncn(C4CCCC4)c3n2)CC1 (stereo not drawn) | 0.0344 | 12.6
O=C(CCl)N1c2ccccc2Oc2ccc3ccccc3c21 | 1.36 | 2.7
CCCCCCCCSC1=CC(=O)c2nc3ccccc3c3ccnc1c23 | 92.6 | > 100
Cc1ccc(-c2nnc(-c3ccc4ccccc4c3)o2)cc1 |  | > 100
CCNC1C2(CCCCC2)NC(=O)C12CCCCC2 (stereo not drawn) |  | > 100
COc1ccc(-c2cc(-c3ccc(Nc4nc(Nc5ccccc5)nc(Nc5ccc(Cl)cc5)n4)cc3)nc(N)c2C#N)cc1 | 1.23 | 3.68
O=c1n(CC2CO2)c(=O)n(CC2CO2)n1CC1CO1 (stereo not drawn) | 10.9 | > 100
O=C1C2=C(SCCS2)C(=O)c2ccccc21 |  | 3.02

tested on: NCI-H226 lung; experiment: growth of human tumour cells (NCI), 48 h

SMILES | GI50 [µM] | TGI [µM]
CSc1ccccc1C#C/C=C\C#Cc1ccccc1N1CCCC1=O | > 11.4 | > 50
NC1CCC(Nc2nc(NCc3ccc(-c4ccco4)nc3)c3ncn(C4CCCC4)c3n2)CC1 (stereo not drawn) | 0.126 | 
O=C(CCl)N1c2ccccc2Oc2ccc3ccccc3c21 | 1.63 | 3.26
CCCCCCCCSC1=CC(=O)c2nc3ccccc3c3ccnc1c23 | 0.544 | 96.8
Cc1ccc(-c2nnc(-c3ccc4ccccc4c3)o2)cc1 |  | 99.9
CCNC1C2(CCCCC2)NC(=O)C12CCCCC2 (stereo not drawn) |  | > 100
COc1ccc(-c2cc(-c3ccc(Nc4nc(Nc5ccccc5)nc(Nc5ccc(Cl)cc5)n4)cc3)nc(N)c2C#N)cc1 | 1.08 | 2.73
O=c1n(CC2CO2)c(=O)n(CC2CO2)n1CC1CO1 (stereo not drawn) | 40.6 | > 100
O=C1C2=C(SCCS2)C(=O)c2ccccc21 |  | 3.57

tested on: KM12 colon; experiment: growth of human tumour cells (NCI), 48 h

SMILES | TGI [µM] | GI50 [µM]
CSc1ccccc1C#C/C=C\C#Cc1ccccc1N1CCCC1=O | > 17.6 | 
NC1CCC(Nc2nc(NCc3ccc(-c4ccco4)nc3)c3ncn(C4CCCC4)c3n2)CC1 (stereo not drawn) | 0.086 | 0.0107
O=C(CCl)N1c2ccccc2Oc2ccc3ccccc3c21 | 3.3 | 1.8
CCCCCCCCSC1=CC(=O)c2nc3ccccc3c3ccnc1c23 | > 100 | > 100
Cc1ccc(-c2nnc(-c3ccc4ccccc4c3)o2)cc1 | > 100 | 
CCNC1C2(CCCCC2)NC(=O)C12CCCCC2 (stereo not drawn) | > 100 | 
COc1ccc(-c2cc(-c3ccc(Nc4nc(Nc5ccccc5)nc(Nc5ccc(Cl)cc5)n4)cc3)nc(N)c2C#N)cc1 | 2.14 | 0.961
O=c1n(CC2CO2)c(=O)n(CC2CO2)n1CC1CO1 (stereo not drawn) | > 100 | 31.5
O=C1C2=C(SCCS2)C(=O)c2ccccc21 | 3.18 | 

tested on: SK-OV-3 ovarian; experiment: growth of human tumour cells (NCI), 48 h

SMILES | TGI [µM] | GI50 [µM]
CSc1ccccc1C#C/C=C\C#Cc1ccccc1N1CCCC1=O | > 50 | 
NC1CCC(Nc2nc(NCc3ccc(-c4ccco4)nc3)c3ncn(C4CCCC4)c3n2)CC1 (stereo not drawn) | 15.6 | 0.049
O=C(CCl)N1c2ccccc2Oc2ccc3ccccc3c21 | 6.09 | 2.51
CCCCCCCCSC1=CC(=O)c2nc3ccccc3c3ccnc1c23 | > 100 | > 100
Cc1ccc(-c2nnc(-c3ccc4ccccc4c3)o2)cc1 | > 100 | 
CCNC1C2(CCCCC2)NC(=O)C12CCCCC2 (stereo not drawn) | > 100 | 
COc1ccc(-c2cc(-c3ccc(Nc4nc(Nc5ccccc5)nc(Nc5ccc(Cl)cc5)n4)cc3)nc(N)c2C#N)cc1 | > 50 | > 28.3
O=c1n(CC2CO2)c(=O)n(CC2CO2)n1CC1CO1 (stereo not drawn) | > 80.2 | 8.37
O=C1C2=C(SCCS2)C(=O)c2ccccc21 | 3.12 | 

tested on: UACC-257 melanoma; experiment: growth of human tumour cells (NCI), 48 h

SMILES | GI50 [µM] | TGI [µM]
CSc1ccccc1C#C/C=C\C#Cc1ccccc1N1CCCC1=O | > 12.5 | > 50
NC1CCC(Nc2nc(NCc3ccc(-c4ccco4)nc3)c3ncn(C4CCCC4)c3n2)CC1 (stereo not drawn) | 0.0277 | 0.088
O=C(CCl)N1c2ccccc2Oc2ccc3ccccc3c21 | 1.53 | 3.16
CCCCCCCCSC1=CC(=O)c2nc3ccccc3c3ccnc1c23 | 41.1 | > 100
Cc1ccc(-c2nnc(-c3ccc4ccccc4c3)o2)cc1 |  | > 100
CCNC1C2(CCCCC2)NC(=O)C12CCCCC2 (stereo not drawn) |  | > 100
COc1ccc(-c2cc(-c3ccc(Nc4nc(Nc5ccccc5)nc(Nc5ccc(Cl)cc5)n4)cc3)nc(N)c2C#N)cc1 | 1.25 | 3.15
O=c1n(CC2CO2)c(=O)n(CC2CO2)n1CC1CO1 (stereo not drawn) | 13 | 95.6
O=C1C2=C(SCCS2)C(=O)c2ccccc21 |  | 3.45

tested on: ACHN renal; experiment: growth of human tumour cells (NCI), 48 h

SMILES | GI50 [µM] | TGI [µM]
CSc1ccccc1C#C/C=C\C#Cc1ccccc1N1CCCC1=O | > 22.9 | > 50
NC1CCC(Nc2nc(NCc3ccc(-c4ccco4)nc3)c3ncn(C4CCCC4)c3n2)CC1 (stereo not drawn) | 0.242 | 
O=C(CCl)N1c2ccccc2Oc2ccc3ccccc3c21 | 1.37 | 2.82
CCCCCCCCSC1=CC(=O)c2nc3ccccc3c3ccnc1c23 | 52.2 | > 100
Cc1ccc(-c2nnc(-c3ccc4ccccc4c3)o2)cc1 |  | > 100
CCNC1C2(CCCCC2)NC(=O)C12CCCCC2 (stereo not drawn) |  | > 100
COc1ccc(-c2cc(-c3ccc(Nc4nc(Nc5ccccc5)nc(Nc5ccc(Cl)cc5)n4)cc3)nc(N)c2C#N)cc1 | 0.885 | 1.77
O=c1n(CC2CO2)c(=O)n(CC2CO2)n1CC1CO1 (stereo not drawn) | 2.69 | > 100
O=C1C2=C(SCCS2)C(=O)c2ccccc21 |  | 3.05

tested on: OVCAR-4 ovarian; experiment: growth of human tumour cells (NCI), 48 h

SMILES | GI50 [µM] | TGI [µM]
CSc1ccccc1C#C/C=C\C#Cc1ccccc1N1CCCC1=O | > 22.1 | > 50
NC1CCC(Nc2nc(NCc3ccc(-c4ccco4)nc3)c3ncn(C4CCCC4)c3n2)CC1 (stereo not drawn) | 0.0307 | 
O=C(CCl)N1c2ccccc2Oc2ccc3ccccc3c21 | 1.44 | 3.34
CCCCCCCCSC1=CC(=O)c2nc3ccccc3c3ccnc1c23 | 19.1 | > 100
Cc1ccc(-c2nnc(-c3ccc4ccccc4c3)o2)cc1 |  | > 100
CCNC1C2(CCCCC2)NC(=O)C12CCCCC2 (stereo not drawn) |  | > 100
COc1ccc(-c2cc(-c3ccc(Nc4nc(Nc5ccccc5)nc(Nc5ccc(Cl)cc5)n4)cc3)nc(N)c2C#N)cc1 | 1.06 | 3.2
O=c1n(CC2CO2)c(=O)n(CC2CO2)n1CC1CO1 (stereo not drawn) | 19.2 | > 85
O=C1C2=C(SCCS2)C(=O)c2ccccc21 |  | 3.01

tested on: HL-60(TB) leukemia; experiment: growth of human tumour cells (NCI), 48 h

SMILES | GI50 [µM] | TGI [µM]
CSc1ccccc1C#C/C=C\C#Cc1ccccc1N1CCCC1=O | 2.43 | 
NC1CCC(Nc2nc(NCc3ccc(-c4ccco4)nc3)c3ncn(C4CCCC4)c3n2)CC1 (stereo not drawn) | 0.0193 | 0.0729
O=C(CCl)N1c2ccccc2Oc2ccc3ccccc3c21 | 1.45 | 4.86
CCCCCCCCSC1=CC(=O)c2nc3ccccc3c3ccnc1c23 | 16.3 | > 100
Cc1ccc(-c2nnc(-c3ccc4ccccc4c3)o2)cc1 |  | > 21.9
CCNC1C2(CCCCC2)NC(=O)C12CCCCC2 (stereo not drawn) |  | > 100
COc1ccc(-c2cc(-c3ccc(Nc4nc(Nc5ccccc5)nc(Nc5ccc(Cl)cc5)n4)cc3)nc(N)c2C#N)cc1 | 1.15 | 6.41
O=c1n(CC2CO2)c(=O)n(CC2CO2)n1CC1CO1 (stereo not drawn) | 4.99 | > 49.4
O=C1C2=C(SCCS2)C(=O)c2ccccc21 |  | 6.77

tested on: MALME-3M melanoma; experiment: growth of human tumour cells (NCI), 48 h

SMILES | TGI [µM] | GI50 [µM]
CSc1ccccc1C#C/C=C\C#Cc1ccccc1N1CCCC1=O | > 50 | 
NC1CCC(Nc2nc(NCc3ccc(-c4ccco4)nc3)c3ncn(C4CCCC4)c3n2)CC1 (stereo not drawn) | 0.212 | 0.035
O=C(CCl)N1c2ccccc2Oc2ccc3ccccc3c21 | 2.91 | 1.33
CCCCCCCCSC1=CC(=O)c2nc3ccccc3c3ccnc1c23 | > 100 | 83.3
Cc1ccc(-c2nnc(-c3ccc4ccccc4c3)o2)cc1 | > 88.9 | 
CCNC1C2(CCCCC2)NC(=O)C12CCCCC2 (stereo not drawn) | > 100 | 
COc1ccc(-c2cc(-c3ccc(Nc4nc(Nc5ccccc5)nc(Nc5ccc(Cl)cc5)n4)cc3)nc(N)c2C#N)cc1 | 1.8 | 0.801
O=c1n(CC2CO2)c(=O)n(CC2CO2)n1CC1CO1 (stereo not drawn) | > 100 | 64.1
O=C1C2=C(SCCS2)C(=O)c2ccccc21 | 3.2 | 

tested on: A549 NSCLC; experiment: growth of human tumour cells (NCI), 48 h

SMILES | GI50 [µM] | TGI [µM]
CSc1ccccc1C#C/C=C\C#Cc1ccccc1N1CCCC1=O | > 11 | > 50
NC1CCC(Nc2nc(NCc3ccc(-c4ccco4)nc3)c3ncn(C4CCCC4)c3n2)CC1 (stereo not drawn) | 0.0273 | 14.4
O=C(CCl)N1c2ccccc2Oc2ccc3ccccc3c21 | 1.9 | 3.81
CCCCCCCCSC1=CC(=O)c2nc3ccccc3c3ccnc1c23 | 83.2 | > 100
Cc1ccc(-c2nnc(-c3ccc4ccccc4c3)o2)cc1 |  | > 100
CCNC1C2(CCCCC2)NC(=O)C12CCCCC2 (stereo not drawn) |  | > 100
COc1ccc(-c2cc(-c3ccc(Nc4nc(Nc5ccccc5)nc(Nc5ccc(Cl)cc5)n4)cc3)nc(N)c2C#N)cc1 | 2.74 | > 50
O=c1n(CC2CO2)c(=O)n(CC2CO2)n1CC1CO1 (stereo not drawn) | 5.9 | > 72
O=C1C2=C(SCCS2)C(=O)c2ccccc21 |  | 3.83
